Values after ≈ are worked out from the molar mass of the structure shown.
How the values were obtained:
Type in all cases: functional
[1] = tested on: Klebsiella pneumoniae; assay: Antibacterial activity against Klebsiella pneumoniae NK29 by Etest
[2] = tested on: Escherichia coli; assay: Antibacterial activity against plasmid pK29 transconjugant Escherichia coli J53 assessed as inhibition zone diameter by CLSI disk diffusion confirmatory test
[3] = tested on: Klebsiella pneumoniae; assay: Antibacterial activity against Klebsiella pneumoniae NK29 assessed as inhibition zone diameter by CLSI disk diffusion confirmatory test
[4] = tested on: Escherichia coli; assay: Antibacterial activity against plasmid pK29 transconjugant Escherichia coli J53 by Etest
[5] = tested on: Escherichia coli; assay: Antibacterial activity against Escherichia coli J53 by Etest
[6] = tested on: Escherichia coli; assay: Antibacterial activity against Escherichia coli J53 assessed as inhibition zone diameter by CLSI disk diffusion confirmatory test
[7] = tested on: Escherichia coli; assay: Antibacterial activity against plasmid pK29 transconjugant Escherichia coli J53 by broth microdilution test
[8] = tested on: Escherichia coli; assay: Antibacterial activity against Escherichia coli J53 by broth microdilution test
[9] = tested on: Klebsiella pneumoniae; assay: Antibacterial activity against Klebsiella pneumoniae NK29 by broth microdilution test

SMILES | MIC [1] | inhibition zone (IZ) [2] | inhibition zone (IZ) [3] | MIC [4] | MIC [5] | inhibition zone (IZ) [6] | MIC [7] | MIC [8] | MIC [9]
O=C(O)c1cn(C2CC2)c2cc(N3CCNCC3)c(F)cc2c1=O [CIPROFLOXACIN] | 0.047 mg/L (≈ 0.142 µM) | – | – | – | – | – | – | – | –
CO/N=C(\C(=O)N[C@@H]1C(=O)N2C(C(=O)O)=C(COC(C)=O)CS[C@H]12)c1csc(N)n1 [CEFOTAXIME] | 32 mg/L (≈ 70.3 µM) | 16 mm | 13 mm | 24 mg/L (≈ 52.7 µM) | 0.064 mg/L (≈ 0.141 µM) | 31 mm | – | – | –
CO[C@@]1(NC(=O)Cc2cccs2)C(=O)N2C(C(=O)O)=C(COC(N)=O)CS[C@@H]21 [CEFOXITIN] | > 256 mg/L | – | – | > 256 mg/L | 4 mg/L (≈ 9.36 µM) | – | – | – | –
O=C(N[C@H](CO)[C@H](O)c1ccc([N+](=O)[O-])cc1)C(Cl)Cl [CHLORAMPHENICOL] | 96 mg/L (≈ 297 µM) | – | – | 96 mg/L (≈ 297 µM) | 4 mg/L (≈ 12.4 µM) | – | – | – | –
C[C@@H](O)[C@H]1C(=O)N2C(C(=O)O)=C(SCCNC=N)C[C@H]12 [IMIPENEM ANHYDROUS] | 0.25 mg/L (≈ 0.835 µM) | – | – | 0.25 mg/L (≈ 0.835 µM) | – | – | – | – | –
CO/N=C(\C(=O)N[C@@H]1C(=O)N2C(C(=O)O)=C(CSc3nc(=O)c(O)nn3C)CS[C@H]12)c1csc(N)n1 [CEFTRIAXONE] | 24 mg/L (≈ 43.3 µM) | – | – | 16 mg/L (≈ 28.9 µM) | 0.19 mg/L (≈ 0.343 µM) | – | – | – | –
CO/N=C(\C(=O)N[C@@H]1C(=O)N2C(C(=O)[O-])=C(C[N+]3(C)CCCC3)CS[C@H]12)c1csc(N)n1 [CEFEPIME] | 2 mg/L (≈ 4.16 µM) | – | – | 1 mg/L (≈ 2.08 µM) | 0.094 mg/L (≈ 0.196 µM) | – | – | – | –
Cc1cc(NS(=O)(=O)c2ccc(N)cc2)no1 [SULFAMETHOXAZOLE] | – | – | – | – | – | – | > 512 mg/L | ≤ 64 mg/L | > 512 mg/L
CN(C)[C@@H]1C(O)=C(C(N)=O)C(=O)[C@@]2(O)C(O)=C3C(=O)c4c(O)cccc4[C@@](C)(O)[C@H]3C[C@@H]12 [TETRACYCLINE] | 8 mg/L (≈ 18 µM) | – | – | 2 mg/L (≈ 4.5 µM) | 2 mg/L (≈ 4.5 µM) | – | – | – | –
C[C@H]1[C@H](NC(=O)/C(=N\OC(C)(C)C(=O)O)c2csc(N)n2)C(=O)N1S(=O)(=O)O [AZTREONAM] | 4 mg/L (≈ 9.19 µM) | – | – | 2 mg/L (≈ 4.59 µM) | – | – | – | – | –
CC(C)(O/N=C(\C(=O)N[C@@H]1C(=O)N2C(C(=O)[O-])=C(C[n+]3ccccc3)CS[C@H]12)c1csc(N)n1)C(=O)O [CEFTAZIDIME] | 16 mg/L (≈ 29.3 µM) | 27 mm | 17 mm | 1.5 mg/L (≈ 2.74 µM) | 0.19 mg/L (≈ 0.348 µM) | 33 mm | – | – | –
NC[C@H]1O[C@H](O[C@H]2[C@H](O)[C@@H](O[C@H]3O[C@H](CO)[C@@H](O)[C@H](N)[C@H]3O)[C@H](N)C[C@@H]2N)[C@H](O)[C@@H](O)[C@@H]1O [KANAMYCIN] | – | – | – | – | – | – | 32 mg/L (≈ 66 µM) | 8 mg/L (≈ 16.5 µM) | 32 mg/L (≈ 66 µM)
